Patent US20040053885A1, “Use of hyaluronic acid derivatives for the prevention of inflammatory arthritis” (priority 2000, published 2004)

Columns and labels:
[1] = test system: antigen-induced arthritis (knee joint); test: Antigen-induced arthritis of rats: lateral joint diameter of the right knee joint after intraarticular injection; format: in vivo, rat (female Wistar); design: Joint diameter (right), Day 0: unit not given here; conditions: for Joint diameter (right), Day 0: day 0, joint diameter before induction of arthritis (baseline); for Joint diameter (right), day 1, difference with respect to day 0 / Joint diameter (right), measured value on day 1: day 1 after induction; for Increase of joint diameter (right) from day 0 to day 1: day 1, increase after induction, before treatment takes effect
Experimental: The animal model employed, antigen-induced arthritis of rats, is a well established animal model which reflects the mechanisms of rheumatoid arthritis (RA) very well. […] Female Wistar rats are employed for this experiment. At an interval of one week, the animals are subcutaneously preimmunized with 0.1 mg of methylalbumin (mBSA) in Freund's complete adjuvant. Two weeks after the second immunization, 0.1 mg of mBSA is injected intraarticularly into the […] knee joint. This injection induces arthritis, which persists for weeks after an acute phase. One day after the induction of the arthritis, the treatment is begun with sulfated hyaluronic acid solution or with high molecular weight hyaluronic acid (MW=1,800 kD), which are injected intraarticularly into the knee joint. The immunization of the animals was effected at an interval of 7 days. In the first immunization, a total of four subcutaneous injections of 0.25 ml each (corresponding to 0.1 mg of methylalbumin in Freund's complete adjuvant) were effected on both sides of the vertebral column at the level of the shoulder blade and above the hip (each at about 1.5 cm distance from the spines of the vertebrae). In the 2nd immunization, 3 depots of 0.3 ml of solution each were introduced; one exactly between the two shoulder blades and two at the level of the abdomen on both sides paravertebrally. The induction of arthritis was effected two weeks after the 2nd immunization by […] injection of 0.05 ml each of a 10 mg/ml solution of mBSA in physiological saline into the respective right knee joint. On the day after induction of arthritis, 0.05 ml each of a formulation containing sulfated HA was injected into the right knee joint of the 20 animals of the experimental group (use of an insulin syringe, thin cannula, 0.35×40 mm). Thereafter, injection was effected once a week (long-term group). The lateral joint diameter of all animals was measured by means of a distance meter (Matatuyo) prior to and 1, 4 and 8 days after the induction of arthritis and then every week until the experiment was completed. The animals were also weighed each time. On the 7th day, 10 animals of the experimental group and 10 animals of the control group were killed. The animals were put down by ether anesthesia, and the sacrifice of the remaining animals was effected 1 week after the last injection of a formulation containing sulfated HA into the right knee joint.

[2] = test system: antigen-induced arthritis (knee joint); test: as above; format: in vivo, rat (female Wistar); conditions: short-term experiment, 0.05 ml intraarticular on day 1
[3] = long-term experiment, intraarticular injection day 1, then once a week
[4] = short-term experiment, 0.05 ml intraarticular on day 1

Row | Substance | Joint diameter (right), Day 0 ([1]; long-term experiment) | Joint diameter (right), day 1, difference with respect to day 0 ([1]; long-term experiment) | Joint diameter (right), measured value on day 1 ([1]; long-term experiment) | Decrease or increase of joint diameter (right) after the injection on day 1, Day 4 [1, 3] | Decrease or increase of joint diameter (right) after the injection on day 1, Day 8 [1, 3] | Decrease or increase of joint diameter (right) after the injection on day 1, Day 15 [1, 3] | Decrease or increase of joint diameter (right) after the injection on day 1, Day 22 [1, 3] | Decrease or increase of joint diameter (right) after the injection on day 1, Day 29 [1, 3] | Decrease or increase of joint diameter (right) after the injection on day 1, Day 4 [1, 4] | Joint diameter (right), Day 0 ([1]; short-term experiment) | Increase of joint diameter (right) from day 0 to day 1 ([1]; short-term experiment) | Decrease or increase of joint diameter (right) after the injection on day 1, Day 8 [2] | Joint diameters (as a measure of the inflammatory swelling), result in words ([1]; long-term experiment over 3 weeks)
1 | hyaluronic acid [HA, reference compound] | 926.0 | +206 | 1132.9 | +27 | −97 | −140 | −144 | −134 | +18 | 913.2 | +206 | −45 | –
2 | sulfated hyaluronic acid [Sulfated HA] | 927.6 | +226 | 1153.9 | −4 | −127 | −203 | −212 | −231 | +20 | 867.4 | +228 | −118 | significant decrease of the joint diameters
